Data taken from US6515173B1, “Inhibitors of the ICE/ced-3 family of cysteine proteases” (Idun Pharmaceuticals, Inc., priority 2000, dated 2003).
pKi: −log10 of the molar value. Peptide text beside a SMILES is read from it. * marks the point of attachment. Cbz = O=C(OCc1ccccc1)*; CH2F = FC*

Experiments:
Type in all cases: biochemical
Details in all cases: continuous assay sixty minutes, reaction initiated by adding enzyme to substrate-inhibitor mixture; Ki by simulating AMC formation (Equation 1)
[1] = biological target: T1, CPP32 (Homo sapiens, UniProt P42574); experiment: Ki determination, ICE/ced-3 family protease fluorescence assay (CPP32)
T1 sequence (P42574 29-175 limits assumed): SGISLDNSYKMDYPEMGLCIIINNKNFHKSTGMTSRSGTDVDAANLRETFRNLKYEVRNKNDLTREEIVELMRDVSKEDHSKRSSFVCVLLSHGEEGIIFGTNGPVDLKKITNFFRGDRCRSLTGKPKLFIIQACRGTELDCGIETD
T1 sequence (P42574 176-277 limits assumed): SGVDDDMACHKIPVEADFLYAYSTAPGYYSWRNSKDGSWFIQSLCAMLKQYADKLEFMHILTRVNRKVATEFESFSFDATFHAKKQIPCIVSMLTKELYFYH
Experimental: (§1) Fluorescence enzyme assays detecting the activity of the compounds of Formula I utilizing the recombinant ICE and CPP32 enzymes are performed essentially according to Thorrberry et al. (Nature, 356:768:774 (1992)) and Nicholson et al. (Nature, 376:37-43 (1995)) respectively, (herein incorporated by reference) in 96 well microtiter plates. The substrate is Acetyl-Tyr-Val-Ala-Asp-amino-4-methylcoumarin (AMC) (SEQ ID NO: 1) for the ICE assay and Acetyl-Asp-Glu-Val-Asp-amino-4-methylcoumarin (SEQ ID NO: 2) for the CPP32, Mch2, Mch3 and Mch5 assays. Enzyme reactions are run in ICE buffer (25 mM HEPES, 1 mM EDTA, 0.1% CHAPS, 10% sucrose, pH 7.5) containing 2 mM DTT at room temperature in duplicate. The assays are performed by mixing the following components:
(§2) 50 μL ICE, Mch2, Mch5, CPP32 (18.8, 38, 8.1 and 0.153 nM concentrations, respectively) or Mch3 (1 unit) enzyme in ICE buffer containing either 8.0 (ICE, Mch2, Mch3, CPP32) or 20 (Mch5) mM DTT;
(§3) 50 μL compound of Formula I or ICE buffer (control); and […]
(§4) […] Fluorescent AMC product formation is monitored for one hour at room temperature by measuring the fluorescence emission at 460 nm using an excitation wavelength of 360 nm. […]
(§5) The product formation at time t may be expressed as: [formula] […]
(§6) The activity of a representative compound of this invention (i.e., Compound No. 1) evaluated according to the procedures disclosed in Example 1. […]

[2] = biological target: T2, MCH-2 (Homo sapiens, UniProt P55212); experiment: Ki determination, ICE/ced-3 family protease fluorescence assay (MCH-2)
T2 sequence (P55212 24-179 limits assumed): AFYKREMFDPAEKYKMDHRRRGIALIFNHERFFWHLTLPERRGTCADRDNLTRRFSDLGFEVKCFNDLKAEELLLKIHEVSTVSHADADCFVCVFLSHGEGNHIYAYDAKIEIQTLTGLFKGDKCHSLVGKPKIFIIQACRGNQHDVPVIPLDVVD
T2 sequence (P55212 194-293 limits assumed): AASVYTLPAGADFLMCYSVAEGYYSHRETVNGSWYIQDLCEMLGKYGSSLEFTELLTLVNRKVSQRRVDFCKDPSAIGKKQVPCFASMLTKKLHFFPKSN
Experimental: as §1, §2, §3, §4, §5, §6

[3] = biological target: MCH-5 (Homo sapiens, UniProt Q14790); experiment: Ki determination, ICE/ced-3 family protease fluorescence assay (MCH-5)
Experimental: as §1, §2, §3, §4, §5, §6

[4] = biological target: T3, mICE (Mus musculus, UniProt P29452); experiment: Ki determination, ICE/ced-3 family protease fluorescence assay (mICE)
T3 sequence (P29452 123-296 limits assumed): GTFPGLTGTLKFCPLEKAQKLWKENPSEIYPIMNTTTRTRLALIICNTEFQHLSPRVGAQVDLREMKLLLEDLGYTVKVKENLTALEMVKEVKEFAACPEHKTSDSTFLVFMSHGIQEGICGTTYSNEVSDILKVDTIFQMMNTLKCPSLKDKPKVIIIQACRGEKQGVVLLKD
T3 sequence (P29452 315-402 limits assumed): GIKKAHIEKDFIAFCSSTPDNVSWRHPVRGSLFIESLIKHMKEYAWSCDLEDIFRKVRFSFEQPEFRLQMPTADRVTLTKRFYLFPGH
Experimental: as §1, §2, §3, §4, §5, §6

Row | pKi [1] | Ki [2] [µM] | pKi [3] | pKi [4] | SMILES
1 | 6.07 | 0.681 | 7.96 | 8.40 | C[C@H](NC(=O)C(=O)Nc1ccccc1C(C)(C)C)C(=O)N[C@@H](CC(=O)NS(C)(=O)=O)C(=O)COc1c(F)c(F)cc(F)c1F [compound 1]
2 | 6.09 | 0.594 | 7.74 | 7.82 | CC(NC(=O)C(NC(=O)OCc1ccccc1)C(C)C)C(=O)NC(CC(=O)O)C(=O)CF (stereo not drawn) [reference, Cbz-ValAlaAsp-CH2F] (Cbz-Val-Ala-Asp-CH2F; configuration not given here)
